# Source: ChEMBL document CHEMBL1153020, “Smart conferring of nuclease resistance to DNA by 3'-end protection using 2',4'-bridged nucleoside-5'-triphosphates” (Bioorg Med Chem Lett, 2009)
# Assay: Stability assessed as nuclease resistance; call rule not given here
# Type: ADME
row,Activity,Compound
1,Active,Cc1cn([C@@H]2O[C@@]3(COP(=O)(O)OP(=O)(O)OP(=O)(O)O[C@H]4C[C@H](n5cc(C)c(=O)[nH]c5=O)O[C@@H]4COP(=O)(O)O[C@H]4C[C@H](n5cnc6c(=O)[nH]c(N)nc65)O[C@@H]4COP(=O)(O)O[C@H]4C[C@H](n5cnc6c(N)ncnc65)O[C@@H]4COP(=O)(O)O[C@H]4C[C@H](n5cnc6c(=O)[nH]c(N)nc65)O[C@@H]4COP(=O)(O)O[C@H]4C[C@H](n5cc(C)c(=O)[nH]c5=O)O[C@@H]4COP(=O)(O)O[C@H]4[C@@H](O)[C@H](n5cnc6c(=O)[nH]c(N)nc65)O[C@@H]4COP(=O)(O)O[C@H]4[C@@H](O)[C@H](n5cnc6c(N)ncnc65)O[C@@H]4COP(=O)(O)O[C@H]4C[C@H](n5cnc6c(=O)[nH]c(N)nc65)O[C@@H]4COP(=O)(O)O[C@H]4C[C@H](n5cc(C)c(=O)[nH]c5=O)O[C@@H]4COP(=O)(O)O[C@H]4C[C@H](n5cnc6c(N)ncnc65)O[C@@H]4COP(=O)(O)O[C@H]4C[C@H](n5cnc6c(N)ncnc65)O[C@@H]4COP(=O)(O)O[C@H]4C[C@H](n5cnc6c(=O)[nH]c(N)nc65)O[C@@H]4COP(=O)(O)O[C@H]4C[C@H](n5cc(C)c(=O)[nH]c5=O)O[C@@H]4COP(=O)(O)O[C@H]4C[C@H](n5cnc6c(=O)[nH]c(N)nc65)O[C@@H]4COP(=O)(O)O[C@H]4C[C@H](n5cnc6c(N)ncnc65)O[C@@H]4COP(=O)(O)O[C@H]4C[C@H](n5cnc6c(=O)[nH]c(N)nc65)O[C@@H]4COP(=O)(O)O[C@H]4C[C@H](n5cc(C)c(=O)[nH]c5=O)O[C@@H]4COP(=O)(O)O[C@H]4C[C@H](n5cnc6c(=O)[nH]c(N)nc65)O[C@@H]4COP(=O)(O)O[C@H]4C[C@H](n5cnc6c(N)ncnc65)O[C@@H]4COP(=O)(O)O[C@H]4C[C@H](n5cnc6c(=O)[nH]c(N)nc65)O[C@@H]4COP(=O)(O)O[C@H]4C[C@H](n5cc(C)c(=O)[nH]c5=O)O[C@@H]4COP(=O)(O)O[C@H]4C[C@H](n5cc(C)c(=O)[nH]c5=O)O[C@@H]4COP(=O)(O)O[C@H]4C[C@H](n5cnc6c(=O)[nH]c(N)nc65)O[C@@H]4COP(=O)(O)O[C@H]4C[C@H](n5ccc(N)nc5=O)O[C@@H]4COP(=O)(O)O[C@H]4C[C@H](n5cnc6c(=O)[nH]c(N)nc65)O[C@@H]4COP(=O)(O)O[C@H]4C[C@H](n5cnc6c(=O)[nH]c(N)nc65)O[C@@H]4CO)COC2[C@@H]3O)c(=O)[nH]c1=O
2,Active,Cc1cn([C@@H]2O[C@@]3(COP(=O)(O)OP(=O)(O)OP(=O)(O)O[C@H]4C[C@H](n5cc(C)c(=O)[nH]c5=O)O[C@@H]4COP(=O)(O)O[C@H]4C[C@H](n5cnc6c(=O)[nH]c(N)nc65)O[C@@H]4COP(=O)(O)O[C@H]4C[C@H](n5cnc6c(N)ncnc65)O[C@@H]4COP(=O)(O)O[C@H]4C[C@H](n5cnc6c(=O)[nH]c(N)nc65)O[C@@H]4COP(=O)(O)O[C@H]4C[C@H](n5cc(C)c(=O)[nH]c5=O)O[C@@H]4COP(=O)(O)O[C@H]4[C@@H](O)[C@H](n5cnc6c(=O)[nH]c(N)nc65)O[C@@H]4COP(=O)(O)O[C@H]4[C@@H](O)[C@H](n5cnc6c(N)ncnc65)O[C@@H]4COP(=O)(O)O[C@H]4C[C@H](n5cnc6c(=O)[nH]c(N)nc65)O[C@@H]4COP(=O)(O)O[C@H]4C[C@H](n5cc(C)c(=O)[nH]c5=O)O[C@@H]4COP(=O)(O)O[C@H]4C[C@H](n5cnc6c(N)ncnc65)O[C@@H]4COP(=O)(O)O[C@H]4C[C@H](n5cnc6c(N)ncnc65)O[C@@H]4COP(=O)(O)O[C@H]4C[C@H](n5cnc6c(=O)[nH]c(N)nc65)O[C@@H]4COP(=O)(O)O[C@H]4C[C@H](n5cc(C)c(=O)[nH]c5=O)O[C@@H]4COP(=O)(O)O[C@H]4C[C@H](n5cnc6c(=O)[nH]c(N)nc65)O[C@@H]4COP(=O)(O)O[C@H]4C[C@H](n5cnc6c(N)ncnc65)O[C@@H]4COP(=O)(O)O[C@H]4C[C@H](n5cnc6c(=O)[nH]c(N)nc65)O[C@@H]4COP(=O)(O)O[C@H]4C[C@H](n5cc(C)c(=O)[nH]c5=O)O[C@@H]4COP(=O)(O)O[C@H]4C[C@H](n5cnc6c(=O)[nH]c(N)nc65)O[C@@H]4COP(=O)(O)O[C@H]4C[C@H](n5cnc6c(N)ncnc65)O[C@@H]4COP(=O)(O)O[C@H]4C[C@H](n5cnc6c(=O)[nH]c(N)nc65)O[C@@H]4COP(=O)(O)O[C@H]4C[C@H](n5cc(C)c(=O)[nH]c5=O)O[C@@H]4COP(=O)(O)O[C@H]4C[C@H](n5cc(C)c(=O)[nH]c5=O)O[C@@H]4COP(=O)(O)O[C@H]4C[C@H](n5cnc6c(=O)[nH]c(N)nc65)O[C@@H]4COP(=O)(O)O[C@H]4C[C@H](n5ccc(N)nc5=O)O[C@@H]4COP(=O)(O)O[C@H]4C[C@H](n5cnc6c(=O)[nH]c(N)nc65)O[C@@H]4COP(=O)(O)O[C@H]4C[C@H](n5cnc6c(=O)[nH]c(N)nc65)O[C@@H]4CO)COCOC2[C@@H]3O)c(=O)[nH]c1=O
3,Active,Cc1cn([C@@H]2O[C@@]3(COP(=O)(O)OP(=O)(O)OP(=O)(O)O[C@H]4C[C@H](n5cc(C)c(=O)[nH]c5=O)O[C@@H]4COP(=O)(O)O[C@H]4C[C@H](n5cnc6c(=O)[nH]c(N)nc65)O[C@@H]4COP(=O)(O)O[C@H]4C[C@H](n5cnc6c(N)ncnc65)O[C@@H]4COP(=O)(O)O[C@H]4C[C@H](n5cnc6c(=O)[nH]c(N)nc65)O[C@@H]4COP(=O)(O)O[C@H]4C[C@H](n5cc(C)c(=O)[nH]c5=O)O[C@@H]4COP(=O)(O)O[C@H]4[C@@H](O)[C@H](n5cnc6c(=O)[nH]c(N)nc65)O[C@@H]4COP(=O)(O)O[C@H]4[C@@H](O)[C@H](n5cnc6c(N)ncnc65)O[C@@H]4COP(=O)(O)O[C@H]4C[C@H](n5cnc6c(=O)[nH]c(N)nc65)O[C@@H]4COP(=O)(O)O[C@H]4C[C@H](n5cc(C)c(=O)[nH]c5=O)O[C@@H]4COP(=O)(O)O[C@H]4C[C@H](n5cnc6c(N)ncnc65)O[C@@H]4COP(=O)(O)O[C@H]4C[C@H](n5cnc6c(N)ncnc65)O[C@@H]4COP(=O)(O)O[C@H]4C[C@H](n5cnc6c(=O)[nH]c(N)nc65)O[C@@H]4COP(=O)(O)O[C@H]4C[C@H](n5cc(C)c(=O)[nH]c5=O)O[C@@H]4COP(=O)(O)O[C@H]4C[C@H](n5cnc6c(=O)[nH]c(N)nc65)O[C@@H]4COP(=O)(O)O[C@H]4C[C@H](n5cnc6c(N)ncnc65)O[C@@H]4COP(=O)(O)O[C@H]4C[C@H](n5cnc6c(=O)[nH]c(N)nc65)O[C@@H]4COP(=O)(O)O[C@H]4C[C@H](n5cc(C)c(=O)[nH]c5=O)O[C@@H]4COP(=O)(O)O[C@H]4C[C@H](n5cnc6c(=O)[nH]c(N)nc65)O[C@@H]4COP(=O)(O)O[C@H]4C[C@H](n5cnc6c(N)ncnc65)O[C@@H]4COP(=O)(O)O[C@H]4C[C@H](n5cnc6c(=O)[nH]c(N)nc65)O[C@@H]4COP(=O)(O)O[C@H]4C[C@H](n5cc(C)c(=O)[nH]c5=O)O[C@@H]4COP(=O)(O)O[C@H]4C[C@H](n5cc(C)c(=O)[nH]c5=O)O[C@@H]4COP(=O)(O)O[C@H]4C[C@H](n5cnc6c(=O)[nH]c(N)nc65)O[C@@H]4COP(=O)(O)O[C@H]4C[C@H](n5ccc(N)nc5=O)O[C@@H]4COP(=O)(O)O[C@H]4C[C@H](n5cnc6c(=O)[nH]c(N)nc65)O[C@@H]4COP(=O)(O)O[C@H]4C[C@H](n5cnc6c(=O)[nH]c(N)nc65)O[C@@H]4CO)NCOC2[C@@H]3O)c(=O)[nH]c1=O
4,Active,Cc1cn([C@H]2C[C@H](OP(=O)(O)OC[C@H]3O[C@@H](n4cnc5c(=O)[nH]c(N)nc54)C[C@@H]3OP(=O)(O)OC[C@H]3O[C@@H](n4cnc5c(N)ncnc54)C[C@@H]3OP(=O)(O)OC[C@H]3O[C@@H](n4cnc5c(=O)[nH]c(N)nc54)C[C@@H]3OP(=O)(O)OC[C@H]3O[C@@H](n4cc(C)c(=O)[nH]c4=O)C[C@@H]3O)[C@@H](COP(=O)(O)O[C@H]3[C@@H](O)[C@H](n4cnc5c(=O)[nH]c(N)nc54)O[C@@H]3COP(=O)(O)O[C@H]3[C@@H](O)[C@H](n4cnc5c(N)ncnc54)O[C@@H]3COP(=O)(O)O[C@H]3C[C@H](n4cnc5c(=O)[nH]c(N)nc54)O[C@@H]3COP(=O)(O)O[C@H]3C[C@H](n4cc(C)c(=O)[nH]c4=O)O[C@@H]3COP(=O)(O)O[C@H]3C[C@H](n4cnc5c(N)ncnc54)O[C@@H]3COP(=O)(O)O[C@H]3C[C@H](n4cnc5c(N)ncnc54)O[C@@H]3COP(=O)(O)O[C@H]3C[C@H](n4cnc5c(=O)[nH]c(N)nc54)O[C@@H]3COP(=O)(O)O[C@H]3C[C@H](n4cc(C)c(=O)[nH]c4=O)O[C@@H]3COP(=O)(O)O[C@H]3C[C@H](n4cnc5c(=O)[nH]c(N)nc54)O[C@@H]3COP(=O)(O)O[C@H]3C[C@H](n4cnc5c(N)ncnc54)O[C@@H]3COP(=O)(O)O[C@H]3C[C@H](n4cnc5c(=O)[nH]c(N)nc54)O[C@@H]3COP(=O)(O)O[C@H]3C[C@H](n4cc(C)c(=O)[nH]c4=O)O[C@@H]3COP(=O)(O)O[C@H]3C[C@H](n4cnc5c(=O)[nH]c(N)nc54)O[C@@H]3COP(=O)(O)O[C@H]3C[C@H](n4cnc5c(N)ncnc54)O[C@@H]3COP(=O)(O)O[C@H]3C[C@H](n4cnc5c(=O)[nH]c(N)nc54)O[C@@H]3COP(=O)(O)O[C@H]3C[C@H](n4cc(C)c(=O)[nH]c4=O)O[C@@H]3COP(=O)(O)O[C@H]3C[C@H](n4cc(C)c(=O)[nH]c4=O)O[C@@H]3COP(=O)(O)O[C@H]3C[C@H](n4cnc5c(=O)[nH]c(N)nc54)O[C@@H]3COP(=O)(O)O[C@H]3C[C@H](n4ccc(N)nc4=O)O[C@@H]3COP(=O)(O)O[C@H]3C[C@H](n4cnc5c(=O)[nH]c(N)nc54)O[C@@H]3COP(=O)(O)O[C@H]3C[C@H](n4cnc5c(=O)[nH]c(N)nc54)O[C@@H]3CO)O2)c(=O)[nH]c1=O
